This note sets out measurements from US5731309A, “Substituted heteroalkyleneamine neurokinin antagonists” (Zeneca Limited, priority 1994, dated 1998).

One test has as its target T1, NK1 receptor (Oryctolagus cuniculus, UniProt G1SEI7).
T1 construct: The left and right branches of the pulmonary artery are isolated from the rest of the lung tissue; from tissue; host or cells: rabbit (male New Zealand white) pulmonary artery ring segments with intact endothelium
As to the kind of experiment: Rabbit Pulmonary Artery: NK1 in vitro functional assay (Test C). Also on record: species or system rabbit (male New Zealand white). To be noted: -log molar KB, agonist ASMSP, read-out: pKB in Test C (converted). On the procedure: Rabbit Pulmonary Artery: NK1 in vitro functional assay (Test C)
Male New Zealand white rabbits are killed by lethal injection (Nembutal, 60 mg/kg into a cannulated ear vein). Heparin, 0.0025 ml/kg of a 1000 U/ml solution, is injected into the ear vein prior to nembutal in order to decrease blood coagulation. The left and right branches of the pulmonary artery are isolated from the rest of the lung tissue and cut in half to provide four ring segments from each animal. […] Changes in tension are measured on a Grass polygraph via Grass FT-03 force transducers. […]
Potencies of the compounds are determined by calculating the apparent dissociation constants (KB) for each concentration tested using the standard equation: […]
where dose ratio=antilog[(agonist-log molar EC50 without compound)-(agonist-log molar EC50 with compound)]. The KB values are converted to the negative logarithms and expressed as -log molar KB (i.e. pKB). […] The EC50 values are converted to negative logarithms and expressed as -log molar EC50. Maximum relaxation responses to ASMSP are determined by expressing the maximum response to the agonist as a percentage of the relaxation caused by papaverine.

The target in the next test is T2, NK2 receptor (Cavia porcellus, UniProt Q64077).
T2 construct: The trachea are removed, trimmed of excess tissue (including removal of epithelium) and cut in spiral fashion; from tissue; host or cells: guinea pig trachea strips, epithelium removed
T2 sequence (Q64077 1-402): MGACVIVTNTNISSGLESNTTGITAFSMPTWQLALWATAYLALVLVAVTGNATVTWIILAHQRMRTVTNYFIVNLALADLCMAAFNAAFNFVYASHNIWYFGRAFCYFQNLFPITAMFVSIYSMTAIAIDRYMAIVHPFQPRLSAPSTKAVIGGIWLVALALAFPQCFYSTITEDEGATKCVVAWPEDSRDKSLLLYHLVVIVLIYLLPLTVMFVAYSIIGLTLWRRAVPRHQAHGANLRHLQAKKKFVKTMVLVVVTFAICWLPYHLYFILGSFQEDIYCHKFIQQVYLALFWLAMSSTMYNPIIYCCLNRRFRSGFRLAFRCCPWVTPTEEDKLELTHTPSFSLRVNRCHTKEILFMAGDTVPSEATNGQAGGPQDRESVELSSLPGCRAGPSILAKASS
Put plainly: Guinea Pig Trachea Assay: NK2 in vitro functional assay (Test D). To be noted: -log molar KB, agonist BANK, read-out: pKB in Test D (converted). On the procedure:
Guinea Pig Trachea Assay: NK2 in vitro functional assay (Test D)
Male guinea pigs are killed by a sharp blow to the back of the head followed by exsanguination. The trachea are removed, trimmed of excess tissue (including removal of epithelium) and cut in spiral fashion. Each longitudinally cut tracheal segment is suspended as a strip in a water-jacketed (37.5° C.) tissue bath containing a physiological salt solution of the following composition (mM): NaCl, 119; KCl 4.6; CaCl2, 1.8; MgCl2, 0.5; NaH2 PO4, 1; NaHCO3, 25; glucose, 11; and indomethacin, 0.005 (to inhibit cyclooxygenase); gassed continuously with 95% O2-%5 CO2. […] Contractile responses are measured on a Grass polygraph via Grass FT-03 force transducers. […]
Potencies of the compounds are evaluated by calculating apparent dissociation constants (KB) for each concentration tested using the standard equation: […]
where dose ratio=antilog[(agonist -log molar EC50 without compound)-(agonist-log molar EC50 with compound)]. The KB values are converted to the negative logarithms and expressed as -log molar KB (i.e. pKB). […] The EC50 values are converted to the negative logarithms and expressed as -log molar EC50. Maximum contractile responses to BANK are determined by expressing the maximum response to BANK as a percentage of the initial contraction caused by capasacin.

Another test has as its target T3, human NK1 receptor (Homo sapiens, UniProt P25103).
T3 construct: expressed in transfected cells; host or cells: Mouse Erythroleukemia (MEL) cells
Put plainly: SP Receptor Binding Assay (Test A). To be noted: antagonism of SP binding; human NK1 receptor expressed in MEL cells. From the text:
SP Receptor Binding Assay (Test A)
The human NK1 receptor was isolated and characterized as described in: B. Hopkins, et al. "Isolation and characterization of the human lung NK1 receptor cDNA" Biochem. Biophys. Res. Comm., 1991, 180, 1110-1117; and the NK1 receptor was expressed in Mouse Erythroleukemia (MEL) cells using a procedure similar to that described in Test B below.

A further test has as its target T4, human NK2 receptor (Homo sapiens, UniProt P21452).
T4 construct: expressed in transfected cells; host or cells: Mouse Erythroleukemia (MEL) cells
T4 sequence (P21452 1-398): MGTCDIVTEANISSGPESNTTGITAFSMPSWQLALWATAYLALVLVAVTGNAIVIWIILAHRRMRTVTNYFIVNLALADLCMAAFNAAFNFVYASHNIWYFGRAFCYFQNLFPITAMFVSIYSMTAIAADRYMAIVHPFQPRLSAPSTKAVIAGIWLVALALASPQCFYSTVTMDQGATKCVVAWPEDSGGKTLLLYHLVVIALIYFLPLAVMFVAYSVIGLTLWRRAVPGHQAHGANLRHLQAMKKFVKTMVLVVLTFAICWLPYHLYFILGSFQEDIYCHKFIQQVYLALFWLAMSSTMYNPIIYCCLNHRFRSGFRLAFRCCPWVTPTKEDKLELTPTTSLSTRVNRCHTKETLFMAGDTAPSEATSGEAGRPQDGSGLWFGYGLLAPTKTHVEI
Put plainly: Neurokinin A (NKA) Receptor Binding Assay (Test B). To be noted: antagonism of NKA binding; human NK2 receptor expressed in MEL cells. From the text:
Neurokinin A (NKA) Receptor Binding Assay (Test B)

T1 sequence (G1SEI7 1-407): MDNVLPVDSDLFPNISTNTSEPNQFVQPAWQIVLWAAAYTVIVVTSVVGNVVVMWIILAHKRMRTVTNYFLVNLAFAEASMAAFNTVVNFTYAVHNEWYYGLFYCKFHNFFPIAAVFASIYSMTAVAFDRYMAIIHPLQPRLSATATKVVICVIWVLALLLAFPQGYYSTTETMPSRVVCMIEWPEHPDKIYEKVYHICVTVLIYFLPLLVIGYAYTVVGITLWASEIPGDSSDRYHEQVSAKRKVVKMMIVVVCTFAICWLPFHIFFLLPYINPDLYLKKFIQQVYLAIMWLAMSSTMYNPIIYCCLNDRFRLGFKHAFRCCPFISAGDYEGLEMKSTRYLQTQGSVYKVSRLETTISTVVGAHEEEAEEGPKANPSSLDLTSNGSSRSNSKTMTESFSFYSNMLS
T3 sequence (P25103 whole entry): as the sequence (G1SEI7 1-407) above, with F12S, D189N, A369P, E371D, N376T, G386C, N391D, Y402S, M405V counted along it

As for `CC(=O)NC1(c2ccccc2)CCN(CCC(CN(Cc2cc(C(F)(F)F)cc(C(F)(F)F)c2)C(C)=O)c2ccc(Cl)c(Cl)c2)CC1` (stereo not shown) [Example 10, 4-(4-Acetamido-4-phenylpiperidino)-N-acetyl-2-(3,4-dichlorophenyl)-N-[3,5-bis(trifluoromethyl)benzyl]butylamine], the Kb at NK1 receptor is 955 nM; on NK2 receptor it was 3160 nM.

For orientation: Ki means the equilibrium dissociation constant of an inhibitor or competing ligand from its target. A low value points to a stronger hold on the target. Regarding `CC(=O)NC1(c2ccccc2)CCN(CCC(CNCCc2ccccc2)c2ccc(Cl)c(Cl)c2)CC1` (stereo not shown) [Example 3, 4-(4-acetamido-4-phenylpiperidino)-2-(3,4-dichlorophenyl)-N-(phenethyl)butylamine], the Ki came to 430 nM at human NK1 receptor and 13 nM at human NK2 receptor.
